Entries after “also recorded” stand apart in the source; their conditions may differ. Where two headings read alike, the source gives them in different places.
How the values were obtained:
[1] = target: T1, GHRHR (Homo sapiens, UniProt Q02643); experiment: Gαq activation; conditions: HEK293-A, HEK293A, % of max, receptor only, mean ± SEM n≥3
T1 sequence (Q02643 23-423): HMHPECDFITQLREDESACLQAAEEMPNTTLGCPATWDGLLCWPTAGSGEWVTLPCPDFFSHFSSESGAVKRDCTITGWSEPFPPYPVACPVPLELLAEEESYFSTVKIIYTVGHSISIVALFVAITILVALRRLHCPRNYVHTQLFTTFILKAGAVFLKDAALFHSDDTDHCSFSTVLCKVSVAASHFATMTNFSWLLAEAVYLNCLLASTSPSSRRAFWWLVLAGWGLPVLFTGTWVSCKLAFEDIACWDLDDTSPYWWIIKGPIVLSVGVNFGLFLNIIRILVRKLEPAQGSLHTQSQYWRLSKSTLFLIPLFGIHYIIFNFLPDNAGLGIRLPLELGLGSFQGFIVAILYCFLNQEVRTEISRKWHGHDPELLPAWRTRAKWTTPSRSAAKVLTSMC

[2] = target: T1, GHRHR; experiment: cAMP accumulation; conditions: COS-7, COS-7, % of max, receptor only, mean ± SEM n≥3
[3] = target: T2, SV1 (Homo sapiens, UniProt Q02643); experiment: cAMP accumulation; conditions: COS-7, COS-7, % of max, receptor only, mean ± SEM n≥3
T2 sequence (Q02643 90-423 limits assumed): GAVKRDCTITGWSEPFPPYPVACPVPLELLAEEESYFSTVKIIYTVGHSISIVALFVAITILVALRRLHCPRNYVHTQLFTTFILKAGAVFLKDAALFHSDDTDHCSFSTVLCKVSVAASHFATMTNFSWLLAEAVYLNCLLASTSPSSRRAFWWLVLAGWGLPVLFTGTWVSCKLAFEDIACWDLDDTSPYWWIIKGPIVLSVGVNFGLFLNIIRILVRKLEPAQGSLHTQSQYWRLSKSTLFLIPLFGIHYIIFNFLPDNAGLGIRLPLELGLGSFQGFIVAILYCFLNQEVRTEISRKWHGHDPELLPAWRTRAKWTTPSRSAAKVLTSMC

[4] = target: T2, SV1; experiment: β-Arrestin1 recruitment; conditions: COS-7, COS-7, % of max, receptor only, mean ± SEM n≥3
[5] = target: T2, SV1; experiment: Gαq activation; conditions: HEK293A; no RAMP; data not shown
[6] = target: T1, GHRHR; experiment: β-Arrestin1 recruitment; conditions: COS-7, COS-7, % of max, receptor only, mean ± SEM n≥3
[7] = tested on: β2-AR; experiment: cAMP accumulation; conditions: COS-7, mean ± SEM n≥3
[8] = tested on: β2-AR; experiment: Gαq activation; conditions: HEK293A, mean ± SEM n≥3
[9] = tested on: β2-AR; experiment: β-Arrestin1 recruitment; conditions: COS-7, mean ± SEM n≥3; for Emax: % of max, receptor only
[10] = tested on: β2-AR; experiment: β-Arrestin2 recruitment; conditions: COS-7, mean ± SEM n≥3; for Emax: % of max, receptor only
[11] = tested on: COS-7 cells; experiment: RAMP cell surface expression; type: cell-based; conditions: co-expression with SCTR, FLAG-RAMP
[12] = target: CLR (Homo sapiens, UniProt Q16602); experiment: BRET GPCR–RAMP interaction; type: binding; conditions: COS-7; receptor-Rluc8:RAMP-Ypet 1:0.25 to 1:16; pH 7.4, 37 °C; mean ± SEM n≥3
[13] = target: T1, GHRHR; conditions: HEK293T cells ref [11]; cited from earlier work
[14] = tested on: SCTR; experiment: BRET GPCR–RAMP interaction; type: binding; conditions: COS-7; receptor-Rluc8:RAMP-Ypet 1:0.25 to 1:16; pH 7.4, 37 °C; mean ± SEM n≥3
[15] = target: GCGR (Homo sapiens, UniProt P47871); experiment: BRET GPCR–RAMP interaction; type: binding; conditions: COS-7; receptor-Rluc8:RAMP-Ypet 1:0.25 to 1:16; pH 7.4, 37 °C; mean ± SEM n≥3
[16] = target: T3, GIPR (Homo sapiens, UniProt P48546); experiment: BRET GPCR–RAMP interaction; type: binding; conditions: COS-7; receptor-Rluc8:RAMP-Ypet 1:0.25 to 1:16; pH 7.4, 37 °C; mean ± SEM n≥3
T3 sequence (P48546 22-466): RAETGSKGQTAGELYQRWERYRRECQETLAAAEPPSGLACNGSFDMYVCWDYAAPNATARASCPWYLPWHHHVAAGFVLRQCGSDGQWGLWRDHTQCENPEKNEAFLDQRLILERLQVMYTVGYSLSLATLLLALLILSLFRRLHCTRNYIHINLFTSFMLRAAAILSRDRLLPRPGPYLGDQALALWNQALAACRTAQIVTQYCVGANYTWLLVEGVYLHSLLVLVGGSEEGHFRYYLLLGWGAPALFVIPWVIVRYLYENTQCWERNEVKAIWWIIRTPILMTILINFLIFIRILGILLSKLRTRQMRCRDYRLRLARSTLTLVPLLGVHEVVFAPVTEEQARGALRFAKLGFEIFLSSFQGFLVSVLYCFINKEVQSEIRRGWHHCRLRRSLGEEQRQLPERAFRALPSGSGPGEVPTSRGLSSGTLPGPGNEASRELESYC

[17] = target: T1, GHRHR; experiment: BRET GPCR–RAMP interaction; type: binding; conditions: COS-7
[18] = target: T4, GLP-2R (Homo sapiens, UniProt O95838); experiment: BRET GPCR–RAMP interaction; type: binding; conditions: COS-7
T4 sequence (O95838 1-553): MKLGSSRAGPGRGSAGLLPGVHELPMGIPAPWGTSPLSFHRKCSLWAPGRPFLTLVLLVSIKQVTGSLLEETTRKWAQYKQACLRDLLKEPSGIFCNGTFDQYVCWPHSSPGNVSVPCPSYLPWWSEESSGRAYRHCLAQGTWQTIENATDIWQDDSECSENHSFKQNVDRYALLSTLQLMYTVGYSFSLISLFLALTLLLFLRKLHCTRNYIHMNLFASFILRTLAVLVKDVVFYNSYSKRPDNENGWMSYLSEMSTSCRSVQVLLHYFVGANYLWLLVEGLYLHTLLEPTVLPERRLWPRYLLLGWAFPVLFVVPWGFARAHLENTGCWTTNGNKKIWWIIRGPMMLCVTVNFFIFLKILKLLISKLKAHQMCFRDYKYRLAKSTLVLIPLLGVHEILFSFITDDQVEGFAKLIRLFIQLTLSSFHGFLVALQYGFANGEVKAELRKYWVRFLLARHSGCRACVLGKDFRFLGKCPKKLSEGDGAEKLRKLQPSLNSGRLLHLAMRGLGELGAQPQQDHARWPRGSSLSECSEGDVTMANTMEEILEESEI

[19] = target: T2, SV1; experiment: BRET GPCR–RAMP interaction; type: binding; conditions: COS-7; receptor-Rluc8:RAMP-Ypet 1:0.25 to 1:16; pH 7.4, 37 °C; mean ± SEM n≥3
[20] = target: GLP-1R (Homo sapiens, UniProt P43220); experiment: BRET GPCR–RAMP interaction; type: binding; conditions: COS-7; receptor-Rluc8:RAMP-Ypet 1:0.25 to 1:16; pH 7.4, 37 °C; mean ± SEM n≥3
[21] = tested on: SCTR; experiment: β-Arrestin1 recruitment; conditions: COS-7, % of max, receptor only, mean ± SEM n≥3
[22] = tested on: SCTR; experiment: β-Arrestin2 recruitment; conditions: COS-7, % of max, receptor only, mean ± SEM n≥3
[23] = tested on: SCTR; experiment: Gαq activation; conditions: HEK293A, % of max, receptor only, mean ± SEM n≥3
[24] = tested on: SCTR; experiment: cAMP accumulation; conditions: COS-7; vector (no RAMP); % of max, receptor only; mean ± SEM n≥3
[25] = receptor-Rluc8:RAMP-Ypet 1:0.25 to 1:16, pH 7.4, 37 °C, mean ± SEM n≥3

Sequence of GCGR (P47871 26-477, species assumed): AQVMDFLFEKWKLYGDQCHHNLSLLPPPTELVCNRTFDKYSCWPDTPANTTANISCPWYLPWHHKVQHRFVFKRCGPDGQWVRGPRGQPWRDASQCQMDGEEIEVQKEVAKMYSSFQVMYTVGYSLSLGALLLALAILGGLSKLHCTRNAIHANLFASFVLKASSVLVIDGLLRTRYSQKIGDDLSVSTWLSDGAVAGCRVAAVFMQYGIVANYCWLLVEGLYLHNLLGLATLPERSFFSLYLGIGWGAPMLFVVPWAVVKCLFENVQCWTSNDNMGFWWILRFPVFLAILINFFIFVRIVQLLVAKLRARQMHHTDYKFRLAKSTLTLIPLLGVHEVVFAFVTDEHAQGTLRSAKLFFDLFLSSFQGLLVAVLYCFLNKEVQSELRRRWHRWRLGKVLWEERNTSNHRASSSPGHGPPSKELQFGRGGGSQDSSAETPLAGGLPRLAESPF
Sequence of CLR (Q16602 23-461): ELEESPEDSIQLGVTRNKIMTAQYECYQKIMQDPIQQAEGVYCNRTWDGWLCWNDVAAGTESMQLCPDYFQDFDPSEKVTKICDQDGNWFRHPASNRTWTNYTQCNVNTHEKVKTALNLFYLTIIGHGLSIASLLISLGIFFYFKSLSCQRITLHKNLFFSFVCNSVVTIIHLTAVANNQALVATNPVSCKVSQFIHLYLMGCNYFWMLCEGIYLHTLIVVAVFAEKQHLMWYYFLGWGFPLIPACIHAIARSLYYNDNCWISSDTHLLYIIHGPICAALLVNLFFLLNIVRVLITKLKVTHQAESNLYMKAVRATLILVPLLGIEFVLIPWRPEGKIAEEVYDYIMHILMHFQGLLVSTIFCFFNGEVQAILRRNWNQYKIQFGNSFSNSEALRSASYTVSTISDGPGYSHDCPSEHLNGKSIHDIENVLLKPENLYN
Sequence of GLP-1R (P43220 24-463): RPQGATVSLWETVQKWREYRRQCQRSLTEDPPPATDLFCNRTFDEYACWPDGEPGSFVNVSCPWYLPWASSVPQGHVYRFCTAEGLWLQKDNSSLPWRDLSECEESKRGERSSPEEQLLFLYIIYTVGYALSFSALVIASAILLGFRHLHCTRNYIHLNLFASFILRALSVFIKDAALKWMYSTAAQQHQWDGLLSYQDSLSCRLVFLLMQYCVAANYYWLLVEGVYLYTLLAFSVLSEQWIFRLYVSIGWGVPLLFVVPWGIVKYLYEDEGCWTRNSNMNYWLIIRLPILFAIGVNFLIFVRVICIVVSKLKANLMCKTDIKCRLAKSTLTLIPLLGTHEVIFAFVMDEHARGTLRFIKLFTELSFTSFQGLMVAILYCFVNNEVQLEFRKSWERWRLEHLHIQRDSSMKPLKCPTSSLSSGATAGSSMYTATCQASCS

CC[C@H](C)[C@H](NC(=O)[C@H](C)NC(=O)[C@H](CC(=O)O)NC(=O)[C@H](C)NC(=O)[C@@H](N)Cc1ccc(O)cc1)C(=O)N[C@@H](Cc1ccccc1)C(=O)N[C@H](C(=O)N[C@@H](CC(N)=O)C(=O)N[C@@H](CO)C(=O)N[C@@H](Cc1ccc(O)cc1)C(=O)N[C@@H](CCCNC(=N)N)C(=O)N[C@@H](CCCCN)C(=O)N[C@H](C(=O)N[C@@H](CC(C)C)C(=O)NCC(=O)N[C@@H](CCC(N)=O)C(=O)N[C@@H](CC(C)C)C(=O)N[C@@H](CO)C(=O)N[C@@H](C)C(=O)N[C@@H](CCCNC(=N)N)C(=O)N[C@@H](CCCCN)C(=O)N[C@@H](CC(C)C)C(=O)N[C@@H](CC(C)C)C(=O)N[C@@H](CCC(N)=O)C(=O)N[C@@H](CC(=O)O)C(=O)N[C@H](C(=O)N[C@@H](CCSC)C(=O)N[C@@H](CO)C(=O)N[C@@H](CCCNC(=N)N)C(=O)N[C@@H](CCC(N)=O)C(=O)N[C@@H](CCC(N)=O)C(=O)NCC(=O)N[C@@H](CCC(=O)O)C(=O)N[C@@H](CO)C(=O)N[C@@H](CC(N)=O)C(=O)N[C@@H](CCC(N)=O)C(=O)N[C@@H](CCC(=O)O)C(=O)N[C@@H](CCCNC(=N)N)C(=O)NCC(=O)N[C@@H](C)C(=O)N[C@@H](CCCNC(=N)N)C(=O)N[C@@H](C)C(=O)N[C@@H](CCCNC(=N)N)C(=O)N[C@@H](CC(C)C)C(N)=O)[C@@H](C)CC)C(C)C)[C@@H](C)O [GHRH, growth hormone-releasing hormone]
Emax ([1]; RAMP1): 91.8 ± 8.3%
Emax ([1]; RAMP3): 87.9 ± 8%
Emax ([1]; vector (no RAMP)): 100 ± 6.9%
Emax ([2]; RAMP1): 104 ± 1.2%
Emax ([2]; RAMP2): 102 ± 1.4%
Emax ([2]; RAMP3): 100 ± 1.5%
Emax ([3]; RAMP1): 100 ± 3.4%
Emax ([3]; RAMP2): 102 ± 4.2%
Emax ([3]; RAMP3): 100 ± 2%
Emax ([3]; vector (no RAMP)): 100 ± 1.8%
Emax ([4]; RAMP1): 188 ± 36.8%
Emax ([4]; RAMP2): 182 ± 44.2%
Emax ([4]; RAMP3): 168 ± 49.1%
Emax ([4]; vector (no RAMP)): 100 ± 11.2%
Gαq response, receptor alone [5]: did not affect Gαq response
Emax ([6]; RAMP1): 124 ± 42.2%
Emax ([6]; RAMP2): 124 ± 34%
Emax ([6]; RAMP3): 102 ± 45.7%
Emax ([6]; vector (no RAMP)): 100 ± 25.3%

(−)-Adrenaline
pEC50 ([7]; RAMP1): 9.6 ± 0.1
pEC50 ([7]; RAMP2): 9.7 ± 0
pEC50 ([7]; RAMP3): 9.7 ± 0.1
pEC50 ([7]; vector (no RAMP)): 9.6 ± 0
pEC50 ([8]; RAMP1): 6.5 ± 0.2
pEC50 ([8]; RAMP2): 6.3 ± 0.4
pEC50 ([8]; RAMP3): 6.9 ± 0.3
pEC50 ([8]; vector (no RAMP)): 6.9 ± 0.2
Emax ([9]; RAMP1): 77.3 ± 11.1%
pEC50 ([9]; RAMP1): 6 ± 0.4
Emax ([9]; RAMP2): 83.4 ± 15%
pEC50 ([9]; RAMP2): 5.8 ± 0.5
pEC50 ([9]; RAMP3): 6 ± 0.4
pEC50 ([9]; vector (no RAMP)): 6.2 ± 0.3
Emax ([10]; RAMP1): 79.1 ± 5.7%
pEC50 ([10]; RAMP1): 6.7 ± 0.2
Emax ([10]; RAMP2): 90 ± 5.4%
pEC50 ([10]; RAMP2): 6.5 ± 0.2
Emax ([10]; RAMP3): 79.2 ± 6.1%
pEC50 ([10]; RAMP3): 6.4 ± 0.2
pEC50 ([10]; vector (no RAMP)): 6.4 ± 0.1

receptor activity-modulating protein 1 [RAMP1]
RAMP cell surface expression [11]: promoted cell surface translocation
Bmax (maximum measured BRET value) [12]: 0.460 ± 0.017
interaction in words [13]: insignificant
Bmax (maximum measured BRET value) [14]: 0.573 ± 0.021
Bmax (maximum measured BRET value) [15]: 1.149 ± 0.109
Bmax (maximum measured BRET value) [16]: 1.316 ± 0.203
interaction in words ([17]; BRET): readily observed
Bmax (maximum measured BRET value) [17, 25]: 1.122 ± 0.193
interaction in words ([18]; BRET): poor interaction; also recorded: rather weak
Bmax (maximum measured BRET value) [18, 25]: Linear fit
Bmax (maximum measured BRET value) [19]: 1.364 ± 0.244
Bmax (maximum measured BRET value) [20]: 2.039 ± 1.234

secretin
Emax ([21]; RAMP1): 91.8 ± 3.6%
Emax ([21]; RAMP3): 69.1 ± 4.9∗∗ %
Emax ([21]; vector (no RAMP)): 100 ± 5.6%
Emax ([22]; RAMP1): 81 ± 6.2%
Emax ([22]; RAMP3): 67 ± 4.2∗∗ %
Emax ([22]; vector (no RAMP)): 100 ± 4%
Emax ([23]; RAMP1): 127.7 ± 13.5%
Emax ([23]; RAMP3): 97.8 ± 21.1%
Emax ([23]; vector (no RAMP)): 100 ± 14.1%
Emax [24]: 100 ± 1%
